Reference: patent publication US20250295646A1, “METHODS OF USE OF T-TYPE CALCIUM CHANNEL MODULATORS” (Praxis Precision Medicines, Inc., priority 2022, published 2025)

Tested on: adult patients with essential tremor
Experiment: Example 16: video-reviewed TETRAS performance subscale and upper limb score; for TETRAS Performance Subscale Total Score by Video Review, Change from Baseline, Mean (SD): test concentration or dose not given here; for TETRAS Performance Subscale Total Score by Video Review, Change from Baseline, Median: test concentration or dose not given here; for TETRAS Performance Subscale Total Score by Video Review, Mean (SD): test concentration or dose not given here; for TETRAS Performance Subscale Total Score by Video Review, Median: test concentration or dose not given here
Assay type: in vivo, human
Source text: Video-reviewed TETRAS Analyses Video reviewed TETRAS assessments were generally consistent with those conducted at the clinic. Video reviewed TETRAS performance subscale total scores are summarized for Part A, the open-label titration phase of Part B, and the randomized withdrawal phase of Part B in Table 42, Table 43, and Table 44.
Video reviewed upper limb score values were generally consistent with those conducted at the clinic and are summarized for Part A, the open-label titration phase of Part B, and the randomized withdrawal phase of Part B in Table 45, Table 46, and Table 47, respectively.

[1] = Day 1, 6 hours Post - dose, Part A (N = 7)
[2] = Day 1, 6 hours Post - dose, Part B Open-Label Titration Phase (N = 17)
[3] = Day 1, 6 hours Post - dose, Part B, Formula (I) arm (N = 6)
[4] = Day 7, Part B Open-Label Titration Phase (N = 17)
[5] = Day 7, Part B, Formula (I) arm (N = 6)
[6] = Day 21, Part B Open-Label Titration Phase (N = 17)

CC(C)(C)NC(=O)CN1CCC(CNC(=O)c2cc(F)cc(Cl)c2)CC1 [compound of formula (I), N-((1-(2-(tert-butylamino)-2-oxoethyl)piperidin-4-yl)methyl)-3-chloro-5-fluorobenzamide]
TETRAS Performance Subscale Total Score by Video Review, Change from Baseline, Mean (SD) [1]: 0.29 (1.753) | TETRAS Performance Subscale Total Score by Video Review, Change from Baseline, Median [1]: 0.50 | TETRAS Performance Subscale Total Score by Video Review, Mean (SD) [1]: 24.00 (5.148) | TETRAS Performance Subscale Total Score by Video Review, Median [1]: 23.00 | TETRAS Performance Subscale Total Score by Video Review, Percentage Change from Baseline in Tremor Amplitude, Mean (SD) [1]: 1.98 (11.724) % | TETRAS Performance Subscale Total Score by Video Review, Percentage Change from Baseline in Tremor Amplitude, Median [1]: 3.53% | TETRAS Upper Limb Score by Video Review, Change from Baseline, Mean (SD) [1]: 0.21 (0.859) | TETRAS Upper Limb Score by Video Review, Change from Baseline, Median [1]: 0.00 | TETRAS Upper Limb Score by Video Review, Mean (SD) [1]: 10.93 (2.440) | TETRAS Upper Limb Score by Video Review, Median [1]: 10.00 | TETRAS Upper Limb Score by Video Review, Percentage Change from Baseline in Tremor Amplitude, Mean (SD) [1]: 3.57 (14.794) % | TETRAS Upper Limb Score by Video Review, Percentage Change from Baseline in Tremor Amplitude, Median [1]: 0.00% | TETRAS Performance Subscale Total Score by Video Review, Change from Baseline, Mean (SD) [2]: −0.74 (2.544) | TETRAS Performance Subscale Total Score by Video Review, Change from Baseline, Median [2]: −0.50 | TETRAS Performance Subscale Total Score by Video Review, Mean (SD) [2]: 20.79 (6.715) | TETRAS Performance Subscale Total Score by Video Review, Median [2]: 20.50 | TETRAS Performance Subscale Total Score by Video Review, Percentage Change from Baseline in Tremor Amplitude, Mean (SD) [2]: −4.49 (15.951) % | TETRAS Performance Subscale Total Score by Video Review, Percentage Change from Baseline in Tremor Amplitude, Median [2]: −3.53% | TETRAS Upper Limb Score by Video Review, Change from Baseline, Mean (SD) [2]: −0.29 (1.238) | TETRAS Upper Limb Score by Video Review, Change from Baseline, Median [2]: 0.00 | TETRAS Upper Limb Score by Video Review, Mean (SD) [2]: 9.47 (2.809) | TETRAS Upper Limb Score by Video Review, Median [2]: 9.50 | TETRAS Upper Limb Score by Video Review, Percentage Change from Baseline in Tremor Amplitude, Mean (SD) [2]: −4.23 (19.775) % | TETRAS Upper Limb Score by Video Review, Percentage Change from Baseline in Tremor Amplitude, Median [2]: 0.00% | TETRAS Performance Subscale Total Score by Video Review, Change from Baseline, Mean (SD) [3]: −0.42 (2.973) | TETRAS Performance Subscale Total Score by Video Review, Change from Baseline, Median [3]: −0.50 | TETRAS Performance Subscale Total Score by Video Review, Mean (SD) [3]: 21.92 (4.398) | TETRAS Performance Subscale Total Score by Video Review, Median [3]: 21.75 | TETRAS Performance Subscale Total Score by Video Review, Percentage Change from Baseline in Tremor Amplitude, Mean (SD) [3]: −2.29 (18.383) % | TETRAS Performance Subscale Total Score by Video Review, Percentage Change from Baseline in Tremor Amplitude, Median [3]: −3.47% | TETRAS Upper Limb Score by Video Review, Change from Baseline, Mean (SD) [3]: 0.33 (1.125) | TETRAS Upper Limb Score by Video Review, Change from Baseline, Median [3]: 0.75 | TETRAS Upper Limb Score by Video Review, Mean (SD) [3]: 10.25 (1.666) | TETRAS Upper Limb Score by Video Review, Median [3]: 9.50 | TETRAS Upper Limb Score by Video Review, Percentage Change from Baseline in Tremor Amplitude, Mean (SD) [3]: 5.82 (19.104) % | TETRAS Upper Limb Score by Video Review, Percentage Change from Baseline in Tremor Amplitude, Median [3]: 13.30% | TETRAS Performance Subscale Total Score by Video Review, Change from Baseline, Mean (SD) (Day 7, Part A (N = 7)): −1.25 (3.094) | TETRAS Performance Subscale Total Score by Video Review, Change from Baseline, Median (Day 7, Part A (N = 7)): −1.25 | TETRAS Performance Subscale Total Score by Video Review, Mean (SD) (Day 7, Part A (N = 7)): 21.00 (2.449) | TETRAS Performance Subscale Total Score by Video Review, Median (Day 7, Part A (N = 7)): 21.75 | TETRAS Performance Subscale Total Score by Video Review, Percentage Change from Baseline in Tremor Amplitude, Mean (SD) (Day 7, Part A (N = 7)): −7.45 (19.377) % | TETRAS Performance Subscale Total Score by Video Review, Percentage Change from Baseline in Tremor Amplitude, Median (Day 7, Part A (N = 7)): −8.23% | TETRAS Upper Limb Score by Video Review, Change from Baseline, Mean (SD) (Day 7, Part A (N = 7)): −0.25 (1.332) | TETRAS Upper Limb Score by Video Review, Change from Baseline, Median (Day 7, Part A (N = 7)): 0.00 | TETRAS Upper Limb Score by Video Review, Mean (SD) (Day 7, Part A (N = 7)): 9.83 (0.816) | TETRAS Upper Limb Score by Video Review, Median (Day 7, Part A (N = 7)): 10.00 | TETRAS Upper Limb Score by Video Review, Percentage Change from Baseline in Tremor Amplitude, Mean (SD) (Day 7, Part A (N = 7)): −3.79 (22.054) % | TETRAS Upper Limb Score by Video Review, Percentage Change from Baseline in Tremor Amplitude, Median (Day 7, Part A (N = 7)): 0.00% | TETRAS Performance Subscale Total Score by Video Review, Change from Baseline, Mean (SD) [4]: −2.28 (5.019) | TETRAS Performance Subscale Total Score by Video Review, Change from Baseline, Median [4]: −3.50 | TETRAS Performance Subscale Total Score by Video Review, Mean (SD) [4]: 20.17 (6.595) | TETRAS Performance Subscale Total Score by Video Review, Median [4]: 20.50 | TETRAS Performance Subscale Total Score by Video Review, Percentage Change from Baseline in Tremor Amplitude, Mean (SD) [4]: −13.83 (27.204) % | TETRAS Performance Subscale Total Score by Video Review, Percentage Change from Baseline in Tremor Amplitude, Median [4]: −22.26% | TETRAS Upper Limb Score by Video Review, Change from Baseline, Mean (SD) [4]: −1.15 (1.916) | TETRAS Upper Limb Score by Video Review, Change from Baseline, Median [4]: −1.50 | TETRAS Upper Limb Score by Video Review, Mean (SD) [4]: 8.75 (2.880) | TETRAS Upper Limb Score by Video Review, Median [4]: 8.50 | TETRAS Upper Limb Score by Video Review, Percentage Change from Baseline in Tremor Amplitude, Mean (SD) [4]: −17.86 (27.226) % | TETRAS Upper Limb Score by Video Review, Percentage Change from Baseline in Tremor Amplitude, Median [4]: −25.01% | TETRAS Performance Subscale Total Score by Video Review, Change from Baseline, Mean (SD) [5]: −2.00 (2.291) | TETRAS Performance Subscale Total Score by Video Review, Change from Baseline, Median [5]: −1.50 | TETRAS Performance Subscale Total Score by Video Review, Mean (SD) [5]: 20.33 (2.754) | TETRAS Performance Subscale Total Score by Video Review, Median [5]: 20.50 | TETRAS Performance Subscale Total Score by Video Review, Percentage Change from Baseline in Tremor Amplitude, Mean (SD) [5]: −12.63 (13.986) % | TETRAS Performance Subscale Total Score by Video Review, Percentage Change from Baseline in Tremor Amplitude, Median [5]: −10.23% | TETRAS Upper Limb Score by Video Review, Change from Baseline, Mean (SD) [5]: −0.88 (1.031) | TETRAS Upper Limb Score by Video Review, Change from Baseline, Median [5]: −1.00 | TETRAS Upper Limb Score by Video Review, Mean (SD) [5]: 9.00 (0.913) | TETRAS Upper Limb Score by Video Review, Median [5]: 9.00 | TETRAS Upper Limb Score by Video Review, Percentage Change from Baseline in Tremor Amplitude, Mean (SD) [5]: −14.41 (17.112) % | TETRAS Upper Limb Score by Video Review, Percentage Change from Baseline in Tremor Amplitude, Median [5]: −17.46% | TETRAS Performance Subscale Total Score by Video Review, Change from Baseline, Mean (SD) (Day 14, Part A (N = 7)): −2.92 (2.654) | TETRAS Performance Subscale Total Score by Video Review, Change from Baseline, Median (Day 14, Part A (N = 7)): −3.00 | TETRAS Performance Subscale Total Score by Video Review, Mean (SD) (Day 14, Part A (N = 7)): 19.33 (2.380) | TETRAS Performance Subscale Total Score by Video Review, Median (Day 14, Part A (N = 7)): 19.00 | TETRAS Performance Subscale Total Score by Video Review, Percentage Change from Baseline in Tremor Amplitude, Mean (SD) (Day 14, Part A (N = 7)): −17.69 (15.649) % | TETRAS Performance Subscale Total Score by Video Review, Percentage Change from Baseline in Tremor Amplitude, Median (Day 14, Part A (N = 7)): −19.21% | TETRAS Upper Limb Score by Video Review, Change from Baseline, Mean (SD) (Day 14, Part A (N = 7)): −1.33 (1.080) | TETRAS Upper Limb Score by Video Review, Change from Baseline, Median (Day 14, Part A (N = 7)): −1.50 | TETRAS Upper Limb Score by Video Review, Mean (SD) (Day 14, Part A (N = 7)): 8.75 (1.294) | TETRAS Upper Limb Score by Video Review, Median (Day 14, Part A (N = 7)): 9.25 | TETRAS Upper Limb Score by Video Review, Percentage Change from Baseline in Tremor Amplitude, Mean (SD) (Day 14, Part A (N = 7)): −21.27 (17.102) % | TETRAS Upper Limb Score by Video Review, Percentage Change from Baseline in Tremor Amplitude, Median (Day 14, Part A (N = 7)): −24.67% | TETRAS Performance Subscale Total Score by Video Review, Change from Baseline, Mean (SD) (Day 21, Part A (N = 7)): −1.00 (3.146) | TETRAS Performance Subscale Total Score by Video Review, Change from Baseline, Median (Day 21, Part A (N = 7)): −0.75 | TETRAS Performance Subscale Total Score by Video Review, Mean (SD) (Day 21, Part A (N = 7)): 21.25 (2.734) | TETRAS Performance Subscale Total Score by Video Review, Median (Day 21, Part A (N = 7)): 21.75 | TETRAS Performance Subscale Total Score by Video Review, Percentage Change from Baseline in Tremor Amplitude, Mean (SD) (Day 21, Part A (N = 7)): −5.84 (20.134) % | TETRAS Performance Subscale Total Score by Video Review, Percentage Change from Baseline in Tremor Amplitude, Median (Day 21, Part A (N = 7)): −4.59% | TETRAS Upper Limb Score by Video Review, Change from Baseline, Mean (SD) (Day 21, Part A (N = 7)): −0.67 (1.602) | TETRAS Upper Limb Score by Video Review, Change from Baseline, Median (Day 21, Part A (N = 7)): −0.25 | TETRAS Upper Limb Score by Video Review, Mean (SD) (Day 21, Part A (N = 7)): 9.42 (1.320) | TETRAS Upper Limb Score by Video Review, Median (Day 21, Part A (N = 7)): 9.50 | TETRAS Upper Limb Score by Video Review, Percentage Change from Baseline in Tremor Amplitude, Mean (SD) (Day 21, Part A (N = 7)): −9.56 (25.141) % | TETRAS Upper Limb Score by Video Review, Percentage Change from Baseline in Tremor Amplitude, Median (Day 21, Part A (N = 7)): −4.16% | TETRAS Performance Subscale Total Score by Video Review, Change from Baseline, Mean (SD) [6]: −0.96 (3.122) | TETRAS Performance Subscale Total Score by Video Review, Change from Baseline, Median [6]: −1.00 | TETRAS Performance Subscale Total Score by Video Review, Mean (SD) [6]: 21.67 (5.809) | TETRAS Performance Subscale Total Score by Video Review, Median [6]: 21.25 | TETRAS Performance Subscale Total Score by Video Review, Percentage Change from Baseline in Tremor Amplitude, Mean (SD) [6]: −5.66 (18.983) % | TETRAS Performance Subscale Total Score by Video Review, Percentage Change from Baseline in Tremor Amplitude, Median [6]: −6.88% | TETRAS Upper Limb Score by Video Review, Change from Baseline, Mean (SD) [6]: −0.67 (1.628) | TETRAS Upper Limb Score by Video Review, Change from Baseline, Median [6]: −0.50
